The target in test [1] is T1, BRD4 bromo domain 1 [BRD4(1)] (Homo sapiens, UniProt O60885).
T1 construct: N-terminally His6-tagged BRD4(1) (amino acids 67-152); made in house; host or cells: E. coli
The test can be described thus: BRD4(1)/acetylated peptide H4 binding assay (TR-FRET). The settings on record: inhibition of interaction between His6-tagged BRD4(1) (amino acids 67-152) and acetylated histone H4 peptide. The method in brief:
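TR-FRET measured displacement of a biotinylated tetra-acetylated H4 peptide from His6-BRD4(1) (aa 67-152, E. coli-expressed, typically 10 nM) in HEPES pH 7.5 buffer. Compounds were tested at 11 concentrations (0.1 nM–20 μM), with 10 min preincubation, then 1 h at 22 °C and ≥3 h at 4 °C. The 665/620 nm ratio gave IC50 by 4-parameter fit.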
In general terms: TR-FRET usually uses a lanthanide donor and a delayed reading to cut background.

The target of test [2] is T2, BRD4 bromo domain 2 [BRD4(2)] (Homo sapiens, UniProt O60885).
T2 construct: N-terminally His6-tagged BRD4(2) (amino acids 357-445); made in house; host or cells: E. coli
The experiment in a line: BRD4(2)/acetylated peptide H4 binding assay (TR-FRET). Conditions: inhibition of interaction between His6-tagged BRD4(2) (amino acids 357-445) and acetylated histone H4 peptide. The method in brief: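 TR-FRET displacement of biotinylated tetra-acetylated H4 peptide from His6-BRD4(2) (aa 357-445, E. coli-expressed), 100 nM final, in HEPES pH 7.5 buffer; 11 compound concentrations 0.1 nM-20 μM, 10 min preincubation, then 1 h 22 °C plus ≥3 h 4 °C. 665/620 ratio read; IC50 by 4-parameter fit.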

Test [3] deals with MOLM-13 cell line. The experiment in a line: MOLM-13 cell proliferation assay (alamarBlue). It counts as cell-based. The settings on record: Homo sapiens, inhibition of proliferation of MOLM-13 cells (acute myeloid leukaemia), 96 hours incubation. On the procedure:
In accordance with the invention, the substances were tested for their ability to inhibit the proliferation of the MOLM-13 cell linie (Deutsche Sammlung für Mikroorganismen und Zellkulturen [German Collection of Microorganisms and Cell Cultures], ACC 554; acute myeloid leukaemia). Cell viability was determined by means of the alamarBlue® reagent (Invitrogen) in a Victor X3 Multilabel Reader (Perkin Elmer). The excitation wavelength was 530 nm and the emission wavelength […].
The MOLM-13 cells were sown at a density of 4000 cells/well in 100 μl of growth medium on 96-well microtitre plates. After overnight incubation at 37° C., the fluorescence values were determined (CI values). The plates were then treated with various substance dilutions and incubated at 37° C. for 96 hours. Subsequently, the fluorescence values were determined (CO values). For the data analysis, the CI values were subtracted from the CO values and the results were compared between cells which had been treated with various dilutions of the substance or only with buffer solution. The IC50 values (substance concentration needed for 50% inhibition of cell proliferation) were calculated therefrom.

The IC50 is the concentration needed to halve the response being measured. A lower IC50 goes with greater potency. In the case of `COc1cc(C(=O)NC2CCN(C)CC2)ccc1Nc1ccc2c(n1)N(C1CCCC1)[C@H](C)C(=O)N2C` [Example 1, 4-{[(3R)-4-Cyclopentyl-1,3-dimethyl-2-oxo-1,2,3,4-tetrahydropyrido[2,3-b]pyrazin-6-yl]amino}-3-methoxy-N-(1-methylpiperidin-4-yl)benzamide], the IC50 in test [1] was found to be 260 nM; in test [2] it was 138 nM; in test [3], 176 nM.
On to `COc1cc(C(=O)NCCN(C)C)ccc1Nc1ccc2c(n1)N(C(C)C)[C@H](C)C(=O)N2C` [Example 5, N-[2-(Dimethylamino)ethyl]-4-{[(3R)-1,3-dimethyl-2-oxo-4-(propan-2-yl)-1,2,3,4-tetrahydropyrido[2,3-b]pyrazin-6-yl]amino}-3-methoxybenzamide], for which the IC50 in test [1] was 93 nM; in test [3], 503 nM.
For `COc1cc(C(=O)NC2CCCC2)ccc1Nc1ccc2c(n1)N(C(C)C)[C@H](C)C(=O)N2C` [Example 6, N-Cyclopentyl-4-{[(3R)-1,3-dimethyl-2-oxo-4-(propan-2-yl)-1,2,3,4-tetrahydropyrido[2,3-b]pyrazin-6-yl]amino}-3-methoxybenzamide], the IC50 in test [1] was determined as 255 nM; in test [3], 762 nM.
As for `C[C@@H]1C(=O)N(C)c2ccc(Nc3ccc(C(=O)N4CC5(CCS5(=O)=O)C4)cc3)nc2N1C1CCCC1` [Example 7, (3R)-4-Cyclopentyl-6-({4-[(1,1-dioxido-1-thia-6-azaspiro[3.3]hept-6-yl)carbonyl]phenyl}amino)-1,3-dimethyl-3,4-dihydropyrido[2,3-b]pyrazin-2(1H)-one], the IC50 in test [1] was found to be 91 nM; in test [3], 377 nM.
As for `COc1cc(C(=O)NCCN(C)C)ccc1Nc1ccc2c(n1)N(C1CCOCC1)[C@H](C)C(=O)N2C` [Example 46, N-[2-(Dimethyalmino)ethyl]-4-{[(3R)-1,3-dimethyl-2-oxo-4-(tetrahydro-2H-pyran-4-yl)-1,2,3,4-tetrahydropyrido[2,3-b]pyrazin-6-yl]amino}-3-methoxybenzamide], the IC50 in test [1] came to 52 nM; in test [3], 461 nM.
In the case of `C[C@@H]1C(=O)N(C)c2ccc(Nc3ccc(C(=O)N4CC5(COC5)C4)cc3)nc2N1C1CCCCCC1` [Example 93, (3R)-4-Cycloheptyl-1,3-dimethyl-6-{[4-(2-oxa-6-azaspiro[3.3]hept-6-ylcarbonyl)phenyl]amino}-3,4-dihydropyrido[2,3-b]pyrazin-2(1H)-one], the IC50 is 317 nM in test [1] and 90 nM in test [2].
In the case of `C[C@@H]1C(=O)N(C)c2ccc(Nc3ccc(S(=O)(=O)N(C)C)cc3)nc2N1Cc1ccccc1` [Example 94, 4-{[(3R)-4-Benzyl-1,3-dimethyl-2-oxo-1,2,3,4-tetrahydropyrido[2,3-b]pyrazin-6-yl]amino}-N,N-dimethylbenzenesulphonamide], the figures for the IC50 in test [1] and in test [2] were 156 nM and 111 nM, respectively.
For the compound `C[C@@H]1C(=O)N(C)c2ccc(Nc3ccc(S(=O)(=O)N(C)C)cc3)nc2N1C1CCCCCC1` [Example 95, 4-{[(3R)-4-Cycloheptyl-1,3-dimethyl-2-oxo-1,2,3,4-tetrahydropyrido[2,3-b]pyrazin-6-yl]amino}-N,N-dimethylbenzenesulphonamide], the concentration for half-maximal inhibition (IC50) in test [1] was found to be 589 nM; in test [2], 126 nM.
For the compound `CC(C)N1c2nc(Nc3ccc(C(=O)N[C@H]4CC[C@H](N5CCN(CC6CC6)CC5)CC4)cc3)ccc2N(C)C(=O)[C@H]1C` [Example 96, N-{trans-4-[4-(Cyclopropylmethyl)piperazin-1-yl]cyclohexyl}-4-{[(3R)-1,3-dimethyl-2-oxo-4-(propan-2-yl)-1,2,3,4-tetrahydropyrido[2,3-b]pyrazin-6-yl]amino}benzamide], the IC50 in test [1] worked out at 438 nM; in test [2], 344 nM.
The like results for `COc1cc(C(=O)NC2CCC(O)CC2)ccc1Nc1ccc2c(n1)N(C(C)C)[C@H](C)C(=O)N2C` (stereo partly drawn) [Example 97, 4-{[(3R)-1,3-Dimethyl-2-oxo-4-(propan-2-yl)-1,2,3,4-tetrahydropyrido[2,3-b]pyrazin-6-yl]amino}-N-(4-hydroxycyclohexyl)-3-methoxybenzamide] were, in that order, 261 nM and 117 nM.
As for `CC(C)N1c2nc(Nc3ccc(C(=O)NC4CCN(C)CC4)cc3)ccc2N(C)C(=O)[C@H]1C` [Example 98, 4-{[(3R)-1,3-Dimethyl-2-oxo-4-(propan-2-yl)-1,2,3,4-tetrahydropyrido[2,3-b]pyrazin-6-yl]amino}-N-(1-methylpiperidin-4-yl)benzamide], the IC50 was determined as 281 nM in test [1] and 98 nM in test [2].
For `COCCN1c2nc(Nc3ccc(C(=O)NC4CCN(C)CC4)cc3)ccc2N(C)C(=O)C1C` (stereo not drawn) [Example 104, 4-{[4-(2-Methoxyethyl)-1,3-dimethyl-2-oxo-1,2,3,4-tetrahydropyrido[2,3-b]pyrazin-6-yl]amino}-N-(1-methylpiperidin-4-yl)benzamide], in that order: 621 nM and 217 nM.
On to `COCCN1c2nc(Nc3ccc(C(=O)N[C@H]4CC[C@H](N5CCN(CC6CC6)CC5)CC4)cc3)ccc2N(C)C(=O)C1C` (stereo partly drawn) [Example 105, N-{trans-4-[4-(Cyclopropylmethyl)piperazin-1-yl]cyclohexyl}-4-{[4-(2-methoxyethyl)-1,3-dimethyl-2-oxo-1,2,3,4-tetrahydropyrido[2,3-b]pyrazin-6-yl]amino}benzamide], for which the half-inhibitory concentration (IC50) in test [1] is 452 nM; in test [2], 187 nM.
`C[C@@H]1C(=O)N(C)c2ccc(Nc3ccc(S(=O)(=O)N(C)C)cc3)nc2N1C1CCN(C(=O)OC(C)(C)C)CC1` [Example 106, tert-Butyl 4-[(3R)-6-{[4-(dimethylsulphamoyl)phenyl]amino}-1,3-dimethyl-2-oxo-2,3-dihydropyrido[2,3-b]pyrazin-4(1H)-yl]piperidine-1-carbonate]: the half-inhibitory concentration (IC50) in test [1] was 632 nM; in test [2] it was 463 nM.
In the case of `C[C@@H]1C(=O)N(C)c2ccc(Nc3ccc(S(=O)(=O)NC4CCN(C)CC4)cc3)nc2N1c1ccccc1` [Example 108, 4-{[(3R)-1,3-Dimethyl-2-oxo-4-phenyl-1,2,3,4-tetrahydropyrido[2,3-b]pyrazin-6-yl]amino}-N-(1-methylpiperidin-4-yl)benzenesulphonamide], the results for the IC50 in test [1] and in test [2] were 63 nM and 239 nM, respectively.
Regarding `C[C@@H]1C(=O)N(C)c2ccc(Nc3ccc(S(=O)(=O)N[C@H]4CC[C@H](N5CCN(CC6CC6)CC5)CC4)cc3)nc2N1Cc1ccccc1` [Example 109, 4-{[(3R)-4-Benzyl-1,3-dimethyl-2-oxo-1,2,3,4-tetrahydropyrido[2,3-b]pyrazin-6-yl]amino}-N-{trans-4-[4-(cyclopropylmethyl)piperazin-1-yl]cyclohexyl}benzenesulphonamide], the values for the IC50 in test [1] and in test [2] were 36 nM and 78 nM, respectively.
On to `COc1cc(S(=O)(=O)NC2CCN(C)CC2)ccc1Nc1ccc2c(n1)N(C1CCOCC1)[C@H](C)C(=O)N2C` [Example 110, 4-{[(3R)-1,3-Dimethyl-2-oxo-4-(tetrahydro-2H-pyran-4-yl)-1,2,3,4-tetrahydropyrido[2,3-b]pyrazin-6-yl]amino}-3-methoxy-N-(1-methylpiperidin-4-yl)benzenesulphonamide], for which the values for the IC50 in test [1] and in test [2] were 38 nM and 55 nM, respectively.
Consider `COc1cc(S(=O)(=O)N[C@H]2CC[C@H](N3CCN(CC4CC4)CC3)CC2)ccc1Nc1ccc2c(n1)N(C1CCOCC1)[C@H](C)C(=O)N2C` [Example 111, N-{trans-4-[4-(Cyclopropylmethyl)piperazin-1-yl]cyclohexyl}-4-{[(3R)-1,3-dimethyl-2-oxo-4-(tetrahydro-2H-pyran-4-yl)-1,2,3,4-tetrahydropyrido[2,3-b]pyrazin-6-yl]amino}-3-methoxybenzenesulphonamide], for which the IC50 in test [1] is 29 nM; in test [2] it was 130 nM.
On to `COc1cc(S(=O)(=O)N2CCN(C)CC2)ccc1Nc1ccc2c(n1)N(C1CCOCC1)[C@H](C)C(=O)N2C` [Example 112, (3R)-6-({2-Methoxy-4-[(4-methylpiperazin-1-yl)sulphonyl]phenyl}amino)-1,3-dimethyl-4-(tetrahydro-2H-pyran-4-yl)-3,4-dihydropyrido[2,3-b]pyrazin-2(1H)-one], for which the IC50 was 106 nM in test [1] and 86 nM in test [2].

These data come from patent US20160193206A1, “BET-PROTEIN-INHIBITING DIHYDROPYRIDOPYRAZINONES” (BAYER PHARMA AKTIENGESELLSCHAFT, priority 2012, published 2016).
